Assay results from ChEMBL document CHEMBL4196212, “Targeting Cytochrome P450 (CYP) 1B1 Enzyme with Four Series of A-Ring Substituted Estrane Derivatives: Design, Synthesis, Inhibitory Activity, and Selectivity” (J Med Chem, 2018).

Experiments:
Homo sapiens = species on record: Homo sapiens; assay: Selectivity index, ratio of IC50 for inhibition of recombinant human CYP1A1 to IC50 for inhibition of recombinant human CYP1B1
CYP1A1 [1] = target: T1, CYP1A1 (Homo sapiens, UniProt P04798); assay: Inhibition of recombinant human CYP1A1 at 3 uM incubated for 25 mins using 7-ethyl-O-resorufin substrate in presence of NADPH regenerating system by fluorescence based ethoxyresorufin-O-deethylase assay; assay type: ADME; details: recombinant human CYP1A1, probe 7-ethyl-O-resorufin (7-ethoxyresorufin)
T1 sequence (P04798 whole entry): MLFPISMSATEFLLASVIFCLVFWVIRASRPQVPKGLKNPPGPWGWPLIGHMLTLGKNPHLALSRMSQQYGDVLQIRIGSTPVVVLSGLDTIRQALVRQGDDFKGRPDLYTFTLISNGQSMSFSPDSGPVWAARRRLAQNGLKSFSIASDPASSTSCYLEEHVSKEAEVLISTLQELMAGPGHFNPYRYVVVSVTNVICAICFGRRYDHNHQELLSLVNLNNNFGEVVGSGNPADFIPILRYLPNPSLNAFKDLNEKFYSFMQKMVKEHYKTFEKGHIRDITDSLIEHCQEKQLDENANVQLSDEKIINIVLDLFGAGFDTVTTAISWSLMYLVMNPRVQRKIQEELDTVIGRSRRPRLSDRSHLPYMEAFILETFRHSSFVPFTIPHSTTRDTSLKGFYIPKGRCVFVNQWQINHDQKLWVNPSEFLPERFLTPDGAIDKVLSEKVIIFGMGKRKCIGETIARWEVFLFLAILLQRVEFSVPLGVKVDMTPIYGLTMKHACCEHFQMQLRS

CYP1B1 [2] = target: T2, CYP1B1 (Homo sapiens, UniProt Q16678); assay: Inhibition of recombinant human CYP1B1 at 0.3 uM incubated for 45 mins using 7-ethyl-O-resorufin substrate in presence of NADPH regenerating system by fluorescence based ethoxyresorufin-O-deethylase assay; details: recombinant human CYP1B1, probe 7-ethyl-O-resorufin (7-ethoxyresorufin)
T2 sequence (Q16678 whole entry): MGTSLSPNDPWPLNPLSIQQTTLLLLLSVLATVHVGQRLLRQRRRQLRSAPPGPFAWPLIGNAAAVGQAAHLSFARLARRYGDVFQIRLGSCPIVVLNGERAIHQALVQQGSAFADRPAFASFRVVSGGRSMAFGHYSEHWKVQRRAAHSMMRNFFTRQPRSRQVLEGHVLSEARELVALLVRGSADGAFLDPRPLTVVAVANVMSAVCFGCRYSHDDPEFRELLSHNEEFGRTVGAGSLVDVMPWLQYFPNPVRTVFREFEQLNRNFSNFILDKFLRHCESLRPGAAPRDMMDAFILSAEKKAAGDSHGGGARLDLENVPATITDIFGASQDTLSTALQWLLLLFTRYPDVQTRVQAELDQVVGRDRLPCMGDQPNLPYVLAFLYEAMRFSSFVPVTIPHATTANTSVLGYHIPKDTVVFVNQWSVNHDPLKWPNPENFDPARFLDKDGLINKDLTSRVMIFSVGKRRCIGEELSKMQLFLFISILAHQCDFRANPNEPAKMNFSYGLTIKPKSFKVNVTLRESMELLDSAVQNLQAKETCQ

CYP1A1 [3] = target: T1, CYP1A1; assay: Inhibition of recombinant human CYP1A1 at 0.3 uM incubated for 25 mins using 7-ethyl-O-resorufin substrate in presence of NADPH regenerating system by fluorescence based ethoxyresorufin-O-deethylase assay; assay type: ADME; details: recombinant human CYP1A1, probe 7-ethyl-O-resorufin (7-ethoxyresorufin)
Cytochrome P450 1B1 = target: T3, Cytochrome P450 1B1 (Homo sapiens, UniProt Q16678); assay: Inhibition of recombinant human CYP1B1 incubated for 45 mins using 7-ethyl-O-resorufin substrate in presence of NADPH regenerating system by fluorescence based ethoxyresorufin-O-deethylase assay
T3 sequence (Q16678 whole entry): T2 sequence (Q16678 whole entry)

CYP1B1 [4] = target: T2, CYP1B1; assay: Inhibition of recombinant human CYP1B1 at 3 uM incubated for 45 mins using 7-ethyl-O-resorufin substrate in presence of NADPH regenerating system by fluorescence based ethoxyresorufin-O-deethylase assay; details: recombinant human CYP1B1, probe 7-ethyl-O-resorufin (7-ethoxyresorufin)
Cytochrome P450 1A1 = target: T4, Cytochrome P450 1A1 (Homo sapiens, UniProt P04798); assay: Inhibition of recombinant human CYP1A1 incubated for 25 mins using 7-ethyl-O-resorufin substrate in presence of NADPH regenerating system by fluorescence based ethoxyresorufin-O-deethylase assay; assay type: ADME
T4 sequence (P04798 whole entry): T1 sequence (P04798 whole entry)

Compound	Ratio IC50 (Homo sapiens)	inhibition at 25 min, 3 µM (CYP1A1 [1]) [%]	inhibition at 0.75 h, 0.3 µM (CYP1B1 [2]) [%]	inhibition at 25 min, 0.3 µM (CYP1A1 [3]) [%]	IC50 (Cytochrome P450 1B1) [nM]	inhibition at 0.75 h, 3 µM (CYP1B1 [4]) [%]	IC50 (Cytochrome P450 1A1) [nM]
C[C@]12CC[C@@H]3c4cc(-c5ccc(F)cc5)c(O)cc4CC[C@H]3[C@@H]1CC[C@@H]2O	20	0	91	3	240	103	4900
C#C[C@]1(O)CC[C@H]2[C@@H]3CCc4cc(O)c(-c5ccc(OC)cc5)cc4[C@H]3CC[C@@]21C	25	23	58	7	370	94	9200
